Laboratory results taken from article PMC6179058, “Design, synthesis, and biological evaluation of novel iso-flavones derivatives as H3R antagonists” (Journal of Enzyme Inhibition and Medicinal Chemistry, 2018).

Target: T1, human H3R (histamine receptor 3) (Homo sapiens, UniProt Q9Y5N1)
T1 construct: gene HRH3; human H3R fused via TEV protease site to Gal4-VP16 transcription factor; stably expressed in H3-bla U2OS cells (Invitrogen) with beta-arrestin/TEV protease fusion and UAS beta-lactamase reporter
T1 sequence (Q9Y5N1 whole entry, the tested form may be a part): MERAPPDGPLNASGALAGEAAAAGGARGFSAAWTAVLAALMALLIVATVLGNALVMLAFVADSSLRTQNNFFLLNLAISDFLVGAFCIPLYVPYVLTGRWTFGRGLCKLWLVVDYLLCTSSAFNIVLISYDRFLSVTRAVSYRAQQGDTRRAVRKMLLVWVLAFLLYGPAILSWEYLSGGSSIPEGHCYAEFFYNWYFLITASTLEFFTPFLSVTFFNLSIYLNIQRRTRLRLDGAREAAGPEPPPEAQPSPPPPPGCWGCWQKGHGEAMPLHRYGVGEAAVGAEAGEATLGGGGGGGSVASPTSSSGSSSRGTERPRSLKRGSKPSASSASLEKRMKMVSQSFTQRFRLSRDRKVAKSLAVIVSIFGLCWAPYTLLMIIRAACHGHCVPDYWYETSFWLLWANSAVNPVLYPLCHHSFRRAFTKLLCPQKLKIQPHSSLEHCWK
Assay: beta-arrestin/TEV beta-lactamase FRET reporter assay, antagonist mode
Assay type: cell-based
Settings: read-out: Inhibit rate (%) at 10 μM
From the text: beta-arrestin/TEV beta-lactamase FRET reporter assay, antagonist mode on human H3R (histamine receptor 3)

inhibition at 10 µM | Compound
18.7% | O=c1c(-c2ccc(O)cc2)coc2c(CN3CCCC3)c(O)ccc12 [2f, 7-hydroxy-3-(4-hydroxyphenyl)-8-(pyrrolidin-1-ylmethyl)-4H-chromen-4-one]
14.6% | COc1ccc(-c2coc3c(CN4CCCC4)c(O)ccc3c2=O)cc1 [2m, 7-hydroxy-3-(4-methoxyphenyl)-8-(pyrrolidin-1-ylmethyl)-4H-chromen-4-one]
